In the supplement of paper PMC8988213:
Where a name gives a salt, the structure may show the parent alone.

Columns and labels:
[1] = system: ID188 patient-derived PDAC 2D line (pre-FOLFIRINOX); assay: normalised area under dose-response curve (viability relative to DMSO, 7 doses up to 10 µM) (fraction (AUC)); higher = less sensitive (more viability retained); conditions: 72 h; top dose: 10 µM
Summary of the method: (§1)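 SelleckChem library compounds were tested for 72 h at seven concentrations (3-fold steps, highest 10 µM) on patient-derived 2D PDAC cells grown out from organoids. These cells had been robotically placed at 1,500–3,000 cells/well in 96-well plates and incubated overnight at 37°C with 5% CO2, and luminescence from CellTiter-Glo was recorded after 10 min. The GRmetrics R package gave the area under the dose-response curve from viability normalised to control wells.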

[2] = system: ID211 patient-derived PDAC 2D line (post-FOLFIRINOX); assay: as above; conditions: 72 h; top dose: 10 µM
Summary of the method: as §1

## Cn1nccc1Nc1nccc(-c2ccn([C@H](CO)c3ccc(Cl)c(F)c3)c(=O)c2)n1 [GDC-0994]
[1]
  normalised area under dose-response curve: 0.824
[2]
  normalised area under dose-response curve: 0.677

## N#CN=C(NCCCCCCOc1ccc(Cl)cc1)Nc1ccncc1 [GMX1778 (CHS828)]
[1]
  normalised area under dose-response curve: 0.283
[2]
  normalised area under dose-response curve: 0.296

## CC[C@H](C)n1cc(C)c2c(C(=O)NCc3c(C)cc(C)[nH]c3=O)cc(-c3ccc(N4CCNCC4)nc3)cc21 [GSK126]
[1]
  normalised area under dose-response curve: 1.02
[2]
  normalised area under dose-response curve: 0.95

## Cc1cc(C)c(CNC(=O)c2cc(-c3ccc(N4CCN(C)CC4)nc3)cc3c2c(C)cn3C(C)C)c(=O)[nH]1 [GSK503]
[1]
  normalised area under dose-response curve: 0.992
[2]
  normalised area under dose-response curve: 0.891

## CC(C)(C)S(=O)(=O)c1ccc2nccc(Nc3n[nH]c4ccc(F)cc34)c2c1 [GSK583]
[1]
  normalised area under dose-response curve: 0.9
[2]
  normalised area under dose-response curve: 0.893

## O=C(NC[C@H](O)CN1CCc2ccccc2C1)c1ccnc(NC2CCC2)c1 [GSK591]
[1]
  normalised area under dose-response curve: 0.843
[2]
  normalised area under dose-response curve: 0.881

## CC(C)(C)C(=O)N1N=CC[C@H]1c1ccccc1 [GSK963]
[1]
  normalised area under dose-response curve: 0.939
[2]
  normalised area under dose-response curve: 0.857

## CCCOc1ccn2c(C(C)=O)cc(-c3ccccc3S(C)(=O)=O)c2c1 [GSK2801]
[1]
  normalised area under dose-response curve: 0.964
[2]
  normalised area under dose-response curve: 0.782

## O=C(O)CCNc1cc(N2CCc3ccccc3CC2)nc(-c2ccccn2)n1 [GSK J1]
[1]
  normalised area under dose-response curve: 1
[2]
  normalised area under dose-response curve: 0.832

## Cc1cc(SCc2sc(-c3ccc(C(F)(F)F)c(F)c3)nc2C)ccc1OCC(=O)O [GW0742]
[1]
  normalised area under dose-response curve: 0.763
[2]
  normalised area under dose-response curve: 0.93

## O=C(O)Cc1cccc(OCCCN(Cc2cccc(C(F)(F)F)c2Cl)CC(c2ccccc2)c2ccccc2)c1 [GW3965 HCl]
[1]
  normalised area under dose-response curve: 0.923
[2]
  normalised area under dose-response curve: 0.825

## O=C(Nc1ccccc1)c1cc([N+](=O)[O-])ccc1Cl [GW9662]
[1]
  normalised area under dose-response curve: 0.931
[2]
  normalised area under dose-response curve: 0.936

## CC(C)c1cc(-c2n[nH]c(=O)n2-c2ccc3c(ccn3C)c2)c(O)cc1O [Ganetespib (STA-9090)]
[1]
  normalised area under dose-response curve: 0.483
[2]
  normalised area under dose-response curve: 0.266

## Nc1ccn([C@@H]2O[C@H](CO)[C@@H](O)C2(F)F)c(=O)n1 [Gemcitabine HCl]
[1]
  normalised area under dose-response curve: 0.57
[2]
  normalised area under dose-response curve: 0.583

## CCn1c2ccccc2c2cc(CNCc3ccccc3OC)ccc21 [HLCL-61 HCL]
[1]
  normalised area under dose-response curve: 0.957
[2]
  normalised area under dose-response curve: 0.856

## Cc1nc(Nc2cnn(C3CCNCC3)c2)nc2c1N(C)C(=O)c1cc3ccccc3cc1N2C [HTH-01-015]
[1]
  normalised area under dose-response curve: 1.2
[2]
  normalised area under dose-response curve: 0.823

## CCNC(=O)C[C@@H]1N=C(c2ccc(Cl)cc2)c2cc(OC)ccc2-n2c(C)nnc21 [I-BET-762]
[1]
  normalised area under dose-response curve: 0.888
[2]
  normalised area under dose-response curve: 0.777

## CCn1cc(-c2cccc(C(F)(F)F)c2)c2sc(C(=N)NC3CCS(=O)(=O)CC3)cc2c1=O [I-BRD9]
[1]
  normalised area under dose-response curve: 1.01
[2]
  normalised area under dose-response curve: 0.833

## O=C(O)c1ccc(O)c2ncccc12 [IOX1]
[1]
  normalised area under dose-response curve: 0.95
[2]
  normalised area under dose-response curve: 0.871

## O=C(CSc1nc2c(c(=O)n1-c1ccccc1)SCC2)Nc1ccc(-c2ccccc2)cn1 [IWP-L6]
[1]
  normalised area under dose-response curve: 0.968
[2]
  normalised area under dose-response curve: 0.804

## O=C(Nc1cccc2cccnc12)c1ccc(N2C(=O)[C@@H]3[C@H](C2=O)[C@@H]2C=C[C@H]3C2)cc1 [IWR-1-endo]
[1]
  normalised area under dose-response curve: 0.938
[2]
  normalised area under dose-response curve: 0.808

## CNC(=O)[C@H](Cc1c[nH]c2ccccc12)NC(=O)[C@@H](CC(=O)NO)CC(C)C [Ilomastat (GM6001, Galardin)]
[1]
  normalised area under dose-response curve: 1.05
[2]
  normalised area under dose-response curve: 0.809

## CC(Nc1nc(N2CCCC2)nc2ccccc12)c1ccccc1 (stereo unspecified) [Importazole]
[1]
  normalised area under dose-response curve: 0.956
[2]
  normalised area under dose-response curve: 0.849
